Source: patent publication US12673032B2, “Exploiting estrogen receptor beta and TP53 interaction as a new therapeutic strategy for cancer” (Health Research, Inc., priority 2018, dated 2026)
Where two headings read alike, the source gives them in different places.

How the values were obtained:
[1] = test system: TP73 recruitment to the PUMA gene promoter; assay: qChIP for BBC3 (PUMA) promoter occupancy by TP73; type: cell-based; conditions: MDA-MB-231 cells; 5 μM for 24 hours
Method: FIGS. 17A-C. […] (A) Cells were treated with 5 μM TAM for 24 hours. After 24 hours, BBC3 promoter occupancy by TP73 was determined using qChIP in MDA-MB-231 cells. (B) SK-BR-3 cells were transfected with si-NS or si-ESR2 #2 for 48 hours and treated with or without 5 μM TAM for 24 hours. After 72 hours, expression of TP53 target genes (CDKN1A and BBC3) was determined using qRT-PCR. (C) SK-BR-3 cells were transfected with si-NS or si-TP73 for 48 hours and treated with or without 5 μM TAM for 24 hours. After 72 hours, expression of TP53 target genes (CDKN1A and BBC3) was determined using qRT-PCR. Error bars are represented as mean SD of three independent experiments. All ‘p’ values were determined by two tailed student t-test. qRT-PCR=Quantitative real time polymerase chain reaction. si-NS=non-specific siRNA; si-ESR2 #2=ESR2 specific siRNA; si-TP73=TP73 specific siRNA; VEH=Vehicle; TAM=4-Hydroxytamoxifen.
Chromatin immunoprecipitation (ChIP) assay. […] Immunoprecipitated chromatin samples were analyzed through real-time q-PCR as stated above. A region downstream of CDKN1A/p21 promoter sequence was used as endogenous control for the relative quantitation of immunoprecipitated chromatin fragments (Details of the primers are provided in Table 1). The promoter occupancy by transcription factor (s) of interest was analyzed as qRT-PCR.

[2] = test system: MDA-MB-231 cells expressing mutant p53; assay: Doxorubicin cell-killing IC50 in TNBC cells expressing mutant p53, with or without tamoxifen; type: cell-based; conditions: for IC50: Homo sapiens

Row | Compound | recruitment of TP73 to the PUMA gene promoter (qChIP) [1] | IC50 ([2]; MDA-MB-231, read-out: IC50 of doxorubicin with addition of tamoxifen) | IC50 ([2]; read-out: IC50 (drug concentration required to kill 50% cells) of doxorubicin, MDA-MB-231 expressing mutant p53, doxorubicin alone) | Decrease of doxorubicin IC50 on addition of tamoxifen ([2]; MDA-MB-231 expressing mutant p53)
1 | 4-hydroxy tamoxifen | enhanced | – | – | –
2 | COc1cccc2c1C(=O)c1c(O)c3c(c(O)c1C2=O)C[C@@](O)(C(=O)CO)C[C@@H]3O[C@H]1C[C@H](N)[C@H](O)[C@H](C)O1 [doxorubicin] | – | 150 nM | 1050 nM | about 7 fold
